Assay results reported in patent US20250171486A1, “N4-ISOBUTYRYLOXYCYTIDINE ANALOG SYNTHESIS AND COMPOSITION FOR TREATING VIRAL INFECTION COMPRISING ANTI-VIRAL USE THEREOF” (Dong-A University Research Foundation for Industry-Academy …, priority 2022, published 2025).
Where two headings read alike, the source gives them in different places.

Key:
[1] = test system: Influenza virus B/Lee/40 (Lee); assay: microbe, parasite or virus in culture; type: cell-based; conditions: for EC50: read-out: Antiviral activity (EC50) Flu B Lee; for Selectivity index Flu B Lee: MDCK cells
[2] = test system: DENV-2 replicon; assay: microbe, parasite or virus in culture; type: cell-based; conditions: for S.I., Selectivity index = CC50/EC50: DENV-2, BHK-21 cells
[3] = test system: Influenza virus A/Hong Kong/8/68 (HK: H3N2); assay: organism not typed; type: cell-based; conditions: for EC50: read-out: Antiviral activity (EC50) Flu A H3N2 Hong Kong; for Selectivity index Flu A H3H2 Hong Kong: MDCK cells
[4] = test system: MDCK cells; assay: Cytotoxicity in mock-infected MDCK cells (MTT); conditions: read-out: Toxicity (CC50); MDCK cells, 3 days
[5] = test system: DENV-2 replicon BHK-21 (DENV2-BHK) cells; assay: MTT cytotoxicity assay in DENV-2 replicon BHK-21 cells; conditions: for CC50: read-out: CC50, 50% cytotoxic concentration, BHK-21 cells, MTT
[6] = test system: Vero cells; conditions: for CC50: read-out: CC50, cytotoxicity, 2 days
[7] = test system: SARS-COV-2 (BetaCoV/Korea/KCDC03/2020); assay: Image-based anti-SARS-COV-2 assay in Vero cells (anti-spike antibody); type: cell-based
[8] = test system: Influenza virus A/Puerto Rico/8/34 (PR8; H1N1); assay: organism not typed; type: cell-based; conditions: for EC50: read-out: Antiviral activity (EC50) Flu A H1N1 PR8; for Selectivity index Flu A H1N1 PR8: MDCK cells
[9] = in vitro; conditions: for CC50: African green monkey
[10] = Cytotoxicity in mock-infected MDCK cells (MTT); conditions: dog, mock-infected MDCK cells
[11] = MTT cytotoxicity assay in DENV-2 replicon BHK-21 cells; conditions: hamster
[12] = in vitro; conditions: dog
[13] = read-out: EC50, 50% effective concentration, anti-DENV-2 activity, DENV-2 replicon BHK-21 cells, luciferase
[14] = unidentified influenza virus, MDCK, 72 h
[15] = Dengue virus, DENV2, BHK-21, read-out: EC50, 50% effective concentration, anti-DENV-2 activity
[16] = Severe acute respiratory syndrome coronavirus 2, Vero, 48 h

| Compound | EC50 [1] | EC50 [2, 13] | EC50 [3] | CC50 [4] | CC50 [5] | CC50 [6] | EC50 [7] | EC50 [8] | CC50 [9] | EC50 [1, 14] | EC50 [2, 15] | Selectivity index Flu A H3H2 Hong Kong [3] | EC50 ([3]; MDCK, 72 h) | EC50 [7, 16] | EC50 ([8]; MDCK, 72 h) | further results |
| --- | --- | --- | --- | --- | --- | --- | --- | --- | --- | --- | --- | --- | --- | --- | --- | --- |
| CCOC(=O)[C@H](Cc1ccccc1)Nc1ccn([C@@H]2O[C@H](CO)[C@@H](O)[C@H]2O)c(=O)n1 [Compound 5f, Ethyl(1-((2R,3R,4S,5R)-3,4-dihydroxy-5-(hydroxymethyl)tetrahydrofuran-2-yl)-2-oxo-1,2-dihydropyrimidin-4-yl)-L-phenylalaninate] | > 100 µM | > 100 µM | > 100 µM | > 100 µM | > 100 µM | > 100 µM | > 100 µM | > 100 µM | – | – | – | – | – | – | – | – |
| CCC(CC)COC(=O)[C@H](C)N[P@](=O)(OC[C@H]1O[C@@](C#N)(c2ccc3c(N)ncnn23)[C@H](O)[C@@H]1O)Oc1ccccc1 [Remdesivir, reference compound] | – | – | – | – | – | – | – | – | > 100 µM | – | – | – | – | – | – | – |
| CC(C)C(=O)ONc1ccn([C@@H]2O[C@H](CO)[C@@H](O)[C@H]2O)c(=O)n1 [Compound 5a, 1-((2R,3R,4S,5R)-3,4-Dihydroxy-5-(hydroxymethyl)tetrahydrofuran-2-yl)-4-((isobutyryloxy)amino)pyrimidin-2 (1H)-one] | – | – | – | – | 10.8 µM | – | – | – | > 100 µM | 3.4 µM | 3.95 µM | >13.7 | 7.3 µM | 3.5 µM | 5.8 µM | Selectivity index Flu B Lee [1]: >29.4; S.I., Selectivity index = CC50/EC50 [2]: 2.74; EC50 value improved over the ester precursor 7 ([2]; DENV-2 replicon): about 6 fold; EC50 value increased compared to the parent Compound 6 ([2]; DENV-2 replicon): about 2 fold; CC50 at 3 days [10]: > 100 µM; Cytotoxicity reduced compared to the parent Compound 6 ([5]; DENV-2 replicon cells): 2 fold; Cytotoxicity improved compared to the parent Compound 6 ([6]; SARS-COV-2 test): ≥ 6 times; Antiviral activity improved compared to the parent Compound 6 ([7]; SARS-COV-2): about 5 times; Antiviral activity improved over the other ester precursor 7 ([7]; SARS-COV-2): 3.5 fold; CC50 at 2 days ([9]; chlorocebus sabaeus): > 100 µM; Selectivity index Flu A H1N1 PR8 [8]: >17.2 |
| CC(C)C(=O)OC[C@H]1O[C@@H](n2ccc(NO)nc2=O)[C@@H](O)C1O (stereo partly drawn) [Compound 7, reference compound] | – | – | – | – | – | – | – | – | > 100 µM | 23.8 µM | 23.4 µM | >16.7 | 6 µM | 11.8 µM | 6.6 µM | Selectivity index Flu B Lee [1]: >4.2; S.I., Selectivity index = CC50/EC50 [2]: 1.81; CC50 at 3 days [10]: > 100 µM; CC50 [11]: 42.2 µM; Selectivity index Flu A H1N1 PR8 [8]: >15.2 |
| CCOC(=O)[C@H](C)Nc1ccn([C@@H]2O[C@H](CO)[C@@H](O)[C@H]2O)c(=O)n1 [Compound 5d, Ethyl(1-((2R,3R,4S,5R)-3,4-dihydroxy-5-(hydroxymethyl)tetrahydrofuran-2-yl)-2-oxo-1,2-dihydropyrimidin-4-yl)-L-alaninate] | > 100 µM | > 100 µM | > 100 µM | > 100 µM | > 100 µM | > 100 µM | > 100 µM | > 100 µM | – | – | – | – | – | – | – | – |
| O=c1nc(NCCO)ccn1[C@@H]1O[C@H](CO)[C@@H](O)[C@H]1O [Compound 5b, 1-((2R,3R,4S,5R)-3,4-Dihydroxy-5-(hydroxymethyl)tetrahydrofuran-2-yl)-4-((2-hydroxyethyl)amino)pyrimidin-2 (1H)-one] | – | – | – | – | – | – | – | – | > 100 µM | > 100 µM | > 100 µM | – | > 100 µM | > 100 µM | > 100 µM | Anti-DENV activity in replication assays (in words) ([2]; DENV-2 replicon): did not exhibit significant anti-DENV activity; CC50 at 3 days [12]: > 100 µM; CC50 [11]: > 100 µM; Biological SARS-COV-2 activity (in words) ([7]; Vero cells): did not show significant biological SARS-COV-2 activity; Anti-Flu A/B activity (in words) ([8]; Flu A (H1N1, H3N2) and Flu B together): did not exhibit significant anti-Flu A/B activity |
| NC(=O)c1ncn([C@@H]2O[C@H](CO)[C@@H](O)[C@H]2O)n1 [RBV, Ribavirin, reference compound] | – | – | – | – | 5.46 µM | – | – | – | – | 33.3 µM | 1.16 µM | – | – | – | – | – |
| CCOC(=O)[C@H](CC(C)C)Nc1ccn([C@@H]2O[C@H](CO)[C@@H](O)[C@H]2O)c(=O)n1 [Compound 5e, Ethyl(1-((2R,3R,4S,5R)-3,4-dihydroxy-5-(hydroxymethyl)tetrahydrofuran-2-yl)-2-oxo-1,2-dihydropyrimidin-4-yl)-L-leucinate] | > 100 µM | > 100 µM | > 100 µM | > 100 µM | > 100 µM | > 100 µM | > 100 µM | > 100 µM | – | – | – | – | – | – | – | – |
| CCOC(=O)CNc1ccn([C@@H]2O[C@H](CO)[C@@H](O)[C@H]2O)c(=O)n1 [Compound 5c, Ethyl(1-((2R,3R,4S,5R)-3,4-dihydroxy-5-(hydroxymethyl)tetrahydrofuran-2-yl)-2-oxo-1,2-dihydropyrimidin-4-yl)glycinate] | > 100 µM | > 100 µM | > 100 µM | > 100 µM | > 100 µM | > 100 µM | > 100 µM | > 100 µM | – | – | – | – | – | – | – | – |
| O=c1nc(NO)ccn1[C@@H]1O[C@H](CO)C(O)[C@@H]1O (stereo partly drawn) [Compound 6, β-D-N^4-hydroxycytidine, reference compound] | – | – | – | – | – | – | – | – | 16.5 µM | < 1.2 µM | 2.84 µM | >43.5 | 2.3 µM | > 16.5 µM | 1.7 µM | S.I., Selectivity index = CC50/EC50 [2]: 2.02; CC50 at 3 days [12]: > 100 µM; CC50 [11]: 5.75 µM; Selectivity index Flu A H1N1 PR8 [8]: >58.8 |
| NC(=O)c1nc(F)cnc1O [Compound T-705, 6-fluoro-3-hydroxy-2-pyrazinecarboxamide, reference compound] | – | – | – | – | – | – | – | – | – | 7.6 µM | – | – | 8.5 µM | – | 3.2 µM | Selectivity index Flu B Lee [1]: >13.2; CC50 at 3 days [10]: > 100 µM |
| NC12CC3CC(CC(C3)C1)C2 [AMT, Amantadine] | – | – | – | – | – | – | – | – | – | > 100 µM | – | >15.6 | 6.4 µM | – | > 100 µM | CC50 [12]: > 100 µM |
